Assay results reported in US20250206761A1, “HALOINDOLE MACROCYCLIC COMPOUNDS FOR THE TREATMENT OF CANCER” (Hoffmann-La Roche Inc., priority 2022, published 2025).

How the values were obtained:
[1] = target: T1, KRAS G12C-BRAF complex (Homo sapiens (Human), UniProt P01116+P62937, G12C); experiment: KRAS G12C-BRAF NanoBit assay; type: cell-based; settings: HEK293 cells, 3 hours of incubation
Outline: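 Stable HEK293 pool co-expressing SmBit-KRAS G12C and BRAF RBD-LgBit; 10,000 cells/well incubated 3 h with compound, 16-point 3-fold dilution from 30 μM final. Live-cell Nano-Glo substrate added, luminescence read at 20 min; disruption seen as luminescence decrease vs DMSO.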

[2] = target: KRAS G12D binding to BRAF (Homo sapiens (Human), UniProt P01116+P62937, G12D); experiment: KRAS-BRAF with CYPA (500 nM) interaction assay (TR-FRET), G12D; type: biochemical
[3] = target: KRAS G12V binding to BRAF (Homo sapiens (Human), UniProt P01116+P62937, G12V); experiment: KRAS-BRAF with CYPA (500 nM) interaction assay (TR-FRET), G12V; type: biochemical
Outline: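 A TR-FRET assay measured how compound, in the presence of CYPA, disrupts binding of GMPPNP-loaded 6His-KRAS G12V to BRAF. The buffer contained 25 mM HEPES PH=7.4, 0.002% Tween20, 0.1% BSA, 100 mM NaCl, 5 mM MgCl2 and 10 μM GMPPNP. Compounds ran as a 16-point 3-fold dilution series from 10 μM for 3 hours.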

[4] = tested on: AGS (ATCC-CRL-1739) cells; experiment: Cell viability assay, G12D (AGS); type: cell-based, human; settings: Homo sapiens, KRAS cell viability, 72 hrs, Cell Counting Kit-8
Outline: (§1)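 After overnight attachment, cells received compounds (0.5% DMSO) for 72 hrs; viability was then quantified with CCK-8, reading OD450 minus OD650, and IC50 values were obtained from a 4-parameter concentration-response fit.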

[5] = target: T1, KRAS G12C-BRAF complex; experiment: KRAS-BRAF with CYPA (500 nM) interaction assay (TR-FRET), G12C; type: biochemical
[6] = tested on: NCI-H358 (ATCC-CRL5807) cells; experiment: Cell viability assay, G12C (NCI-H358); type: cell-based, human; settings: Homo sapiens; KRAS cell viability, NCI-H358, 72 hrs, Cell Counting Kit-8
Outline: as §1

Sequence of KRAS G12D binding to BRAF (P01116-2 other isoform, or with tags, fused parts or gaps G12D): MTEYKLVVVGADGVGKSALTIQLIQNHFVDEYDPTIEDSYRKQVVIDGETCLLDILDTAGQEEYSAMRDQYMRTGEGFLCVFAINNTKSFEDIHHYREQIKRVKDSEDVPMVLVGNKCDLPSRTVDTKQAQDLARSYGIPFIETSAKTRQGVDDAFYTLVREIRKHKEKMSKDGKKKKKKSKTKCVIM
Sequence of KRAS G12D binding to BRAF (P62937 whole entry): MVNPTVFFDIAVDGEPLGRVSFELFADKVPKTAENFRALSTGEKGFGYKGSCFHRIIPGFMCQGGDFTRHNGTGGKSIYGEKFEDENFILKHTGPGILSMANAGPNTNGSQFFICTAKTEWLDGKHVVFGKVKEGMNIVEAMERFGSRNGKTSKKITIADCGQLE
T1 sequence (P01116-2 other isoform, or with tags, fused parts or gaps G12C): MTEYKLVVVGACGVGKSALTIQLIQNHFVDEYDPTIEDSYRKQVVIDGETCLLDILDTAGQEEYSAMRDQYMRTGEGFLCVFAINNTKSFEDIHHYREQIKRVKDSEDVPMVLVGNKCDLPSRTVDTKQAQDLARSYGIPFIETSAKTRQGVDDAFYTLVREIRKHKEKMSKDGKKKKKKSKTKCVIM
T1 sequence (P62937 whole entry): as the sequence (P62937 whole entry) above
Sequence of KRAS G12V binding to BRAF (P01116-2 other isoform, or with tags, fused parts or gaps G12V): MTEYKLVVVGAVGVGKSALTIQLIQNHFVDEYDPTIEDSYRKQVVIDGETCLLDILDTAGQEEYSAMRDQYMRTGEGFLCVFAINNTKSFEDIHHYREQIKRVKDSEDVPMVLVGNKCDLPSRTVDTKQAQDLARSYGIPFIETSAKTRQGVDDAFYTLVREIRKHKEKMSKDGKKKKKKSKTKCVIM
Sequence of KRAS G12V binding to BRAF (P62937 whole entry): as the sequence (P62937 whole entry) above

| SMILES | IC50 [1] [nM] | IC50 [2] [nM] | IC50 [3] [nM] | IC50 [4] [nM] | IC50 [5] [nM] | IC50 [6] [nM] |
| --- | --- | --- | --- | --- | --- | --- |
| CO[C@@H](C)c1ncc(N2CCN(C)CC2)cc1-c1c2c3cc(c(F)cc3n1CC(F)(F)F)-c1csc(n1)C[C@H](NC(=O)[C@H](C(C)C)N1CCC[C@]3(CCN(C(=O)[C@H](F)Cl)C3)C1=O)C(=O)N1CCC[C@H](N1)C(=O)OCC(C)(C)C2 (single isomer, unassigned) [Example 18] | 12 | 1660 | 3330 | 3700 | 71 | 1 |
| CCn1c(-c2cc(N3CCOCC3)cnc2[C@H](C)OC)c2c3cc(c(F)cc31)-c1csc(n1)C[C@H](NC(=O)[C@H](C(C)C)N1CCC3(CN(C(=O)[C@H](F)Cl)C3)C1=O)C(=O)N1CCC[C@H](N1)C(=O)OCC(C)(C)C2 (atropisomer, axis not shown; (M)) [Example 52, (2S)-2-[2-[(2R)-2-chloro-2-fluoro-acetyl]-5-oxo-2,6-diazaspiro[3.4]octan-6-yl]-N-[(7S,13S)-21-ethyl-24-fluoro-(20M)-20-[2-[(1S)-1-methoxyethyl]-5-morpholino-3-pyridyl]-17,17-dimethyl-8,14-dioxo-15-oxa-4-thia-9,21,27,28-tetrazapentacyclo[17.5.2.1^2,5.1^9,13.0^22,26]octacosa-1(25),2,5(28),19,22(26),23-hexaen-7-yl]-3-methyl-butanamide] | 70 | 2060 | > 10000 | 4720 | 115 | < 1 |
| CO[C@@H](C)c1ncc(N2CCN(C)CC2)cc1-c1c2c3cc(c(F)cc3n1CC(F)(F)F)-c1csc(n1)C[C@H](NC(=O)[C@H](C(C)C)N(C)C(=O)C1(F)CCN(C(=O)[C@H](F)Cl)CC1)C(=O)N1CCC[C@H](N1)C(=O)OCC(C)(C)C2 (atropisomer, axis not shown; (M)) [Example 10, 1-[(2R)-2-chloro-2-fluoro-acetyl]-4-fluoro-N-[(1S)-1-[[(7S,13S)-24-fluoro-(20M)-20-[2-[(1S)-1-methoxyethyl]-5-(4-methylpiperazin-1-yl)-3-pyridyl]-17,17-dimethyl-8,14-dioxo-21-(2,2,2-trifluoroethyl)-15-oxa-4-thia-9,21,27,28-tetrazapentacyclo[17.5.2.1^2,5.1^9,13.0^22,26]octacosa-1(25),2,5(28),19,22(26),23-hexaen-7-yl]carbamoyl]-2-methyl-propyl]-N-methyl-piperidine-4-carboxamide] | 4 | 964 | 136 | 105 | 20 | < 1 |
| CCn1c(-c2cc(N3CCOCC3)cnc2[C@H](C)OC)c2c3cc(c(F)cc31)-c1csc(n1)C[C@H](NC(=O)[C@H](C(C)C)N1CC[C@@]3(CCN(C(=O)[C@H](F)Cl)C3)C1=O)C(=O)N1CCC[C@H](N1)C(=O)OCC(C)(C)C2 (atropisomer, axis not shown; (M)) [Example 53, (2S)-2-[(5R)-7-[(2R)-2-chloro-2-fluoro-acetyl]-1-oxo-2,7-diazaspiro[4.4]nonan-2-yl]-N-[(7S,13S)-21-ethyl-24-fluoro-(20M)-20-[2-[(1S)-1-methoxyethyl]-5-morpholino-3-pyridyl]-17,17-dimethyl-8,14-dioxo-15-oxa-4-thia-9,21,27,28-tetrazapentacyclo[17.5.2.1^2,5.1^9,13.0^22,26]octacosa-1(25),2,5(28),19,22(26),23-hexaen-7-yl]-3-methyl-butanamide] | 17 | > 10000 | > 10000 | 1320 | 56 | < 1 |
| CC(C)[C@@H](C(=O)N[C@H]1Cc2cc(O)cc(c2)-c2ccc3c(C(C)(C)C#N)cn(c3c2)CC(C)(C)COC(=O)[C@@H]2CCCN(N2)C1=O)N1CCC2(CN(C(=O)CCl)C2)C1=O [RM44, reference compound] | 11700 | > 10000 | > 10000 | 6230 | 17 | 799 |
| CCn1c(-c2cc(N3CCOCC3)cnc2[C@H](C)OC)c2c3cc(c(F)cc31)-c1csc(n1)C[C@H](NC(=O)[C@H](C(C)C)N1CC[C@]3(CCN(C(=O)[C@H](F)Cl)C3)C1=O)C(=O)N1CCC[C@H](N1)C(=O)OCC(C)(C)C2 (atropisomer, axis not shown; (M)) [Example 51, (2S)-2-[(5S)-7-[(2R)-2-chloro-2-fluoro-acetyl]-1-oxo-2,7-diazaspiro[4.4]nonan-2-yl]-N-[(7S,13S)-21-ethyl-24-fluoro-(20M)-20-[2-[(1S)-1-methoxyethyl]-5-morpholino-3-pyridyl]-17,17-dimethyl-8,14-dioxo-15-oxa-4-thia-9,21,27,28-tetrazapentacyclo[17.5.2.1^2,5.1^9,13.0^22,26]octacosa-1(25),2,5(28),19,22(26),23-hexaen-7-yl]-3-methyl-butanamide] | 34 | > 10000 | 6440 | 2500 | 74 | < 1 |
| CCn1c(-c2cc(N3CCOCC3)cnc2[C@H](C)OC)c2c3cc(c(F)cc31)-c1csc(n1)C[C@H](NC(=O)[C@H](C(C)C)N(C)C(=O)[C@H]1CCN(C(=O)[C@H](F)Cl)C1)C(=O)N1CCC[C@H](N1)C(=O)OCC(C)(C)C2 (atropisomer, axis not shown; (M)) [Example 55, (3S)-1-[(2R)-2-chloro-2-fluoro-acetyl]-N-[(1S)-1-[[(7S,13S)-21-ethyl-24-fluoro-(20M)-20-[2-[(1S)-1-methoxyethyl]-5-morpholino-3-pyridyl]-17,17-dimethyl-8,14-dioxo-15-oxa-4-thia-9,21,27,28-tetrazapentacyclo[17.5.2.1^2,5.1^9,13.0^22,26]octacosa-1(25),2,5(28),19,22(26),23-hexaen-7-yl]carbamoyl]-2-methyl-propyl]-N-methyl-pyrrolidine-3-carboxamide] | 10 | > 10000 | 2110 | 848 | 40 | < 3 |
